Values joined by “and” are separate entries in the source; they are usually repeats but may differ in a detail not shown here. Equal entries are not always repeated.
Columns and labels:
Assay in all cases: CellTiter-Glo 2.0 cell viability, 7x7 combination dose response matrix, synergy scoring
Type in all cases: cell-based
NCI-H2023 cell line = test system: NCI-H2023 cell line
ABC-1 cell line = test system: ABC-1 cell line
MDA-MB-231 cell line = test system: MDA-MB-231 cell line
CAL51 cell line = conditions: CAL51
[1] = NCI-H2023, combined with GNE-477 21-10000 nM, first compound 1.05-500 nM
[2] = NCI-H2023, combined with KU-0063794 21-10000 nM, first compound 1.05-500 nM
[3] = NCI-H2023, combined with M2698 21-10000 nM, first compound 1.05-500 nM
[4] = ABC-1, combined with GNE-477 21-10000 nM, first compound 1.05-500 nM
[5] = ABC-1, combined with KU-0063794 21-10000 nM, first compound 1.05-500 nM
[6] = ABC-1, combined with M2698 21-10000 nM, first compound 1.05-500 nM
[7] = MDA-MB-231, combined with Alpelisib 41-10000 nM, first compound 4.1-1000 nM
[8] = MDA-MB-231, combined with Capivasertib 41-10000 nM, first compound 4.1-1000 nM
[9] = MDA-MB-231, combined with Everolimus 41-10000 nM, first compound 4.1-1000 nM
[10] = MDA-MB-231, combined with GNE-477 41-10000 nM, first compound 4.1-1000 nM
[11] = MDA-MB-231, combined with KU-0063794 41-10000 nM, first compound 4.1-1000 nM
[12] = MDA-MB-231, combined with M2698 41-10000 nM, first compound 4.1-1000 nM
[13] = combined with Alpelisib 41-10000 nM, first compound 4.1-1000 nM
[14] = combined with Capivasertib 41-10000 nM, first compound 4.1-1000 nM
[15] = combined with Everolimus 41-10000 nM, first compound 4.1-1000 nM
[16] = combined with GNE-477 41-10000 nM, first compound 4.1-1000 nM
[17] = combined with KU-0063794 41-10000 nM, first compound 4.1-1000 nM
[18] = combined with M2698 41-10000 nM, first compound 4.1-1000 nM
[19] = NCI-H2023, combined with Alpelisib 21-10000 nM, first compound 0.21-100 nM
[20] = NCI-H2023, combined with Capivasertib 21-10000 nM, first compound 0.21-100 nM
[21] = NCI-H2023, combined with Everolimus 2.1-1000 nM, first compound 0.21-100 nM
[22] = NCI-H2023, combined with GNE-477 21-10000 nM, first compound 0.21-100 nM
[23] = NCI-H2023, combined with KU-0063794 21-10000 nM, first compound 0.21-100 nM
[24] = NCI-H2023, combined with M2698 21-10000 nM, first compound 0.21-100 nM
[25] = ABC-1, combined with Alpelisib 21-10000 nM, first compound 0.21-100 nM
[26] = ABC-1, combined with Capivasertib 21-10000 nM, first compound 0.21-100 nM
[27] = ABC-1, combined with Everolimus 2.1-1000 nM, first compound 0.21-100 nM
[28] = ABC-1, combined with GNE-477 21-10000 nM, first compound 0.21-100 nM
[29] = ABC-1, combined with KU-0063794 21-10000 nM, first compound 0.21-100 nM
[30] = ABC-1, combined with M2698 21-10000 nM, first compound 0.21-100 nM
[31] = MDA-MB-231, combined with Alpelisib 41-10000 nM, first compound 0.41-100 nM
[32] = MDA-MB-231, combined with Capivasertib 41-10000 nM, first compound 0.41-100 nM
[33] = MDA-MB-231, combined with Everolimus 41-10000 nM, first compound 0.41-100 nM
[34] = MDA-MB-231, combined with GNE-477 41-10000 nM, first compound 0.41-100 nM
[35] = MDA-MB-231, combined with KU-0063794 41-10000 nM, first compound 0.41-100 nM
[36] = combined with Alpelisib 41-10000 nM, first compound 0.41-33.33 nM
[37] = combined with Alpelisib 41-10000 nM, first compound 0.41-100 nM
[38] = combined with Everolimus 41-10000 nM, first compound 0.41-100 nM
[39] = combined with GNE-477 41-10000 nM, first compound 0.41-100 nM
[40] = combined with HS173 41-10000 nM, first compound 0.41-100 nM
[41] = combined with KU-0063794 41-10000 nM, first compound 0.41-100 nM
[42] = combined with M2698 41-10000 nM, first compound 0.41-100 nM
[43] = combined with Serabelisib 41-10000 nM, first compound 0.41-100 nM

O=C1CCC(N2Cc3ccc(COC(=O)Nc4cc(OC(F)(F)F)ccc4F)cc3C2=O)C(=O)N1 (stereo not drawn) [Compound 1-1, [2-(2,6-dioxopiperidin-3-yl)-3-oxo-2,3-dihydro-1H-isoindol-5-yl]methyl N-[2-fluoro-5-(trifluoromethoxy)phenyl]carbamate]
Mean Bliss synergy score (NCI-H2023 cell line; [1]): 16.57 | Mean Loewe synergy score (NCI-H2023 cell line; [1]): 4.95 | Mean Bliss synergy score (NCI-H2023 cell line; [2]): 16.57 | Mean Loewe synergy score (NCI-H2023 cell line; [2]): 7.27 | Mean Bliss synergy score (NCI-H2023 cell line; [3]): 10.90 | Mean Loewe synergy score (NCI-H2023 cell line; [3]): 9.33 | Mean Bliss synergy score (ABC-1 cell line; [4]): 17.46 | Mean Loewe synergy score (ABC-1 cell line; [4]): 13.06 | Mean Bliss synergy score (ABC-1 cell line; [5]): 23.16 | Mean Loewe synergy score (ABC-1 cell line; [5]): 12.88 | Mean Bliss synergy score (ABC-1 cell line; [6]): 17.47 | Mean Loewe synergy score (ABC-1 cell line; [6]): 14.22 | Mean Bliss synergy score (MDA-MB-231 cell line; [7]): −0.82 | Mean Loewe synergy score (MDA-MB-231 cell line; [7]): 5.41 | Mean Bliss synergy score (MDA-MB-231 cell line; [8]): 6.44 | Mean Loewe synergy score (MDA-MB-231 cell line; [8]): 8.02 | Mean Bliss synergy score (MDA-MB-231 cell line; [9]): 12.28 | Mean Loewe synergy score (MDA-MB-231 cell line; [9]): 15.50 | Mean Bliss synergy score (MDA-MB-231 cell line; [10]): 4.62 | Mean Loewe synergy score (MDA-MB-231 cell line; [10]): 12.93 | Mean Bliss synergy score (MDA-MB-231 cell line; [11]): 4.80 | Mean Loewe synergy score (MDA-MB-231 cell line; [11]): 9.37 | Mean Bliss synergy score (MDA-MB-231 cell line; [12]): 3.71 | Mean Loewe synergy score (MDA-MB-231 cell line; [12]): 11.94 | Mean Bliss synergy score (MDA-MB-231 cell line; combined with M2698, MDA-MB-231 cell line, mean across dose response matrix, 72 hrs): 4.89 | Mean Bliss synergy score (CAL51 cell line; [13]): 14.61 | Mean Loewe synergy score (CAL51 cell line; [13]): 11.03 | Mean Bliss synergy score (CAL51 cell line; [14]): 32.32 | Mean Loewe synergy score (CAL51 cell line; [14]): 28.73 | Mean Bliss synergy score (CAL51 cell line; [15]): 29.55 | Mean Loewe synergy score (CAL51 cell line; [15]): 34.51 | Mean Bliss synergy score (CAL51 cell line; [16]): 12.11 | Mean Loewe synergy score (CAL51 cell line; [16]): 12.09 | Mean Bliss synergy score (CAL51 cell line; [17]): 20.80 | Mean Loewe synergy score (CAL51 cell line; [17]): 19.07 | Mean Bliss synergy score (CAL51 cell line; [18]): 18.29 | Mean Loewe synergy score (CAL51 cell line; [18]): 22.14

Cc1ccc(NC(=O)OCc2ccc3c(c2)C(=O)N(C2CCC(=O)NC2=O)C3)cc1Cl (stereo not drawn) [Compound 1-6, [2-(2,6-dioxopiperidin-3-yl)-3-oxo-2,3-dihydro-1H-isoindol-5-yl]methyl N-(3-chloro-4-methylphenyl)carbamate]
Mean Bliss synergy score (NCI-H2023 cell line; [19]): 19.68 | Mean Loewe synergy score (NCI-H2023 cell line; [19]): 8.92 | Mean Bliss synergy score (NCI-H2023 cell line; [20]): 22.78 | Mean Loewe synergy score (NCI-H2023 cell line; [20]): 11.70 | Mean Bliss synergy score (NCI-H2023 cell line; [21]): 13.21 | Mean Loewe synergy score (NCI-H2023 cell line; [21]): 17.02 | Mean Bliss synergy score (NCI-H2023 cell line; [22]): 14.13 | Mean Loewe synergy score (NCI-H2023 cell line; [22]): 5.10 | Mean Bliss synergy score (NCI-H2023 cell line; [23]): 18.40 | Mean Loewe synergy score (NCI-H2023 cell line; [23]): 11.37 | Mean Bliss synergy score (NCI-H2023 cell line; [24]): 12.91 | Mean Loewe synergy score (NCI-H2023 cell line; [24]): 11.66 | Mean Bliss synergy score (NCI-H2023 cell line; combined with KU-0063794 (21 nM to 10 uM), NCI-H2023 cell line, mean across dose response matrix, 72 hrs): 18.40 | Mean Loewe synergy score (NCI-H2023 cell line; combined with M2698 (21 nM to 10 uM), NCI-H2023 cell line, mean across dose response matrix, 72 hrs): 11.66 | Mean Bliss synergy score (ABC-1 cell line; [25]): 20.25 | Mean Loewe synergy score (ABC-1 cell line; [25]): 11.94 | Mean Bliss synergy score (ABC-1 cell line; [26]): 33.20 | Mean Loewe synergy score (ABC-1 cell line; [26]): 16.0 | Mean Bliss synergy score (ABC-1 cell line; [27]): 26.31 | Mean Loewe synergy score (ABC-1 cell line; [27]): 19.39 | Mean Bliss synergy score (ABC-1 cell line; [28]): 20.34 | Mean Loewe synergy score (ABC-1 cell line; [28]): 7.13 | Mean Bliss synergy score (ABC-1 cell line; [29]): 19.44 | Mean Loewe synergy score (ABC-1 cell line; [29]): 7.24 | Mean Bliss synergy score (ABC-1 cell line; [30]): 17.02 | Mean Loewe synergy score (ABC-1 cell line; [30]): 8.75 | Mean Bliss synergy score (ABC-1 cell line; combined with Everolimus (2.1 nM to 1 uM), ABC-1 cell line, mean across dose response matrix, 72 hrs): 26.31 | Mean Bliss synergy score (MDA-MB-231 cell line; [31]): 1.80 | Mean Loewe synergy score (MDA-MB-231 cell line; [31]): 5.93 | Mean Bliss synergy score (MDA-MB-231 cell line; [32]): 5.75 | Mean Loewe synergy score (MDA-MB-231 cell line; [32]): 7.02 | Mean Bliss synergy score (MDA-MB-231 cell line; [33]): 8.98 | Mean Loewe synergy score (MDA-MB-231 cell line; [33]): 11.33 | Mean Bliss synergy score (MDA-MB-231 cell line; [34]): 2.23 | Mean Loewe synergy score (MDA-MB-231 cell line; [34]): 5.29 | Mean Bliss synergy score (MDA-MB-231 cell line; [35]): 3.19 | Mean Loewe synergy score (MDA-MB-231 cell line; [35]): 6.78 | Mean Loewe synergy score (MDA-MB-231 cell line; MDA-MB-231, combined with M2698 41-10000 nM, first compound 0.41-100 nM): 4.77 and 5.02 | Mean Bliss synergy score (MDA-MB-231 cell line; combined with Everolimus (41 nM to 10 uM), MDA-MB-231 cell line, mean across dose response matrix, 72 hrs): 8.98 | Mean Bliss synergy score (CAL51 cell line; [36]): 4.15 | Mean Loewe synergy score (CAL51 cell line; [36]): 7.89 | Mean Bliss synergy score (CAL51 cell line; [37]): 13.06 and 19.57 | Mean Loewe synergy score (CAL51 cell line; [37]): 11.36 and 7.04 | Mean Bliss synergy score (CAL51 cell line; combined with Capivasertib 41-10000 nM, first compound 0.41-100 nM): 24.03 and 20.68 | Mean Bliss synergy score (CAL51 cell line; [38]): 20.31 | Mean Loewe synergy score (CAL51 cell line; [38]): 22.83 | Mean Bliss synergy score (CAL51 cell line; [39]): 5.80 | Mean Loewe synergy score (CAL51 cell line; [39]): 6.34 | Mean Bliss synergy score (CAL51 cell line; [40]): 4.98 | Mean Loewe synergy score (CAL51 cell line; [40]): 1.89 | Mean Bliss synergy score (CAL51 cell line; [41]): 12.93 | Mean Loewe synergy score (CAL51 cell line; [41]): 8.26 | Mean Bliss synergy score (CAL51 cell line; [42]): 11.87 and 11.78 | Mean Loewe synergy score (CAL51 cell line; [42]): 12.09 and 12.43 | Mean Bliss synergy score (CAL51 cell line; [43]): 4.74 | Mean Loewe synergy score (CAL51 cell line; [43]): 0.94
